Laboratory results published in publication PMC10707934, “Design and Synthesis of Novel α-Methylchalcone Derivatives, Anti-Cervical Cancer Activity, and Reversal of Drug Resistance in HeLa/DDP Cells” (Molecules, 2023).

Key:
SiHa cells = assay: MTT anti-proliferation assay, SiHa; type: cell-based, human; conditions: Homo sapiens, 48 h, mean ± SD
Experimental: (§1) All cell types, at a volume of 200 µL per well, were inoculated in 96-well plates at a density of 2.5 × 10^4 cells / mL and cultured for 24 h in an incubator with 5% CO2 at 37 °C. The old culture medium was replaced with 200 µL of fresh medium per well containing positive compounds, at concentrations of 1, 6.25, 12.5, 25, 50, and 100 μM. After 48 h of culture, 20 µL per well of 5 mg·mL^−1 MTT solution was added. After 4 h of culture, the old solution was discarded, and 150 µL per well of DMSO solution was added. Using an enzyme labeler (Thermo Fisher Scientific, Multiskan GO, Waltham, MA, USA), the plates were shaken for 10 min, OD values were determined at 490 nm, and the inhibition rate was calculated. Non-linear regression fitting of the cell growth rate was carried out using SPSS 23.0, and the IC50 of the compound was calculated. The inhibition rate was calculated using the formula: [(ODempty − ODtest)/(ODempty − ODnegative group)] × 100%, (ODempty blank group absorbance, ODtest absorbance of administration group, ODnegative group without cell culture medium). Each group contained six compound holes, and the experimental results averaged three trials. Complete medium containing only cells was used as the blank control; a complete medium without cells as was used as the negative control; and cisplatin, paclitaxel, and adriamycin were used as the positive controls. The concentration gradient was the same as that used for compounds 3a–3p.

[1] = tested on: human cervical epithelial cells H8; assay: MTT toxicity assay, normal cervical epithelial cells H8; type: cell-based; conditions: Homo sapiens, Epithelial cell, 48 h, mean ± SD
Experimental: as §1

C33A cells = assay: MTT anti-proliferation assay, C33A; type: cell-based, human; conditions: Homo sapiens, C-33-A, 48 h, mean ± SD
Experimental: as §1

HeLa cells = assay: MTT anti-proliferation assay, HeLa; type: cell-based, human; conditions: Homo sapiens, 48 h, mean ± SD
Experimental: as §1, with “3a–3p. […]” for “3a–3p.”

HeLa/DDP cells = assay: MTT anti-cisplatin-resistant cervical cancer activity, HeLa/DDP; type: cell-based, human; conditions: 48 h
Experimental: as §1
To mitigate the detrimental consequences arising from the fixation of resistance reversal agents, concentrations that yielded a tumor cell proliferation rate reduction of less than 10% were selected. Consequently, the inhibitory efficacy of compound 3k against HeLa/DDP cells was assessed in conjunction with cisplatin at concentrations of 0.25, 0.5, and 1 μM. The experimental procedure employed was akin to that elucidated in Section 3.3.2. The impact of verapamil (6 μM) and 3k (0.25, 0.5, and 1 μM) on P-gp expression was ascertained via Western blot experiments, employing the same methodology delineated in Section 3.3.4.

SMILES	IC50 (SiHa cells) [µM]	IC50 [1] [µM]	melting point [°C]	IC50 (C33A cells) [µM]	IC50 (HeLa cells) [µM]	resistance index (RI) (HeLa/DDP cells; HeLa/DDP versus parental HeLa)	IC50 (HeLa/DDP cells; Homo sapiens, HeLa/DDP, MTT, mean ± SD) [µM]
COc1cc(OC)c(/C=C(\C)C(=O)c2ccc(Cl)c(Cl)c2)c(OC)c1 [Compound 3d, (E)-1-(3,4-Dichlorophenyl)-2-methyl-3-(2,4,6-trimethoxyphenyl)prop-2-en-1-one]	> 100	> 100	67.1 to 67.8	63.7 ± 2.59	97.6 ± 7.61		
COc1ccccc1/C=C(\C)C(=O)c1ccc(Cl)c(Cl)c1 [Compound 3l, (E)-1-(3,4-Dichlorophenyl)-3-(2-methoxyphenyl)-2-methylprop-2-en-1-one]	22.5 ± 1.36	> 100	92.8 to 93.6	17.3 ± 2.24	> 100		
COc1ccc(/C=C(\C)C(=O)c2ccc(Cl)c(Cl)c2)c(OC)c1 [Compound 3f, (E)-1-(3,4-dichlorophenyl)-3-(2,4-dimethoxyphenyl)-2-methylprop-2-en-1-one]	> 100	> 100	112.3 to 113.6	23.7 ± 4.07	> 100		
COc1cc(/C=C(\C)C(=O)c2ccc(Cl)c(Cl)c2)cc(OC)c1OC [Compound 3b, (E)-1-(3,4-Dichlorophenyl)-2-methyl-3-(3,4,5-trimethoxyphenyl)prop-2-en-1-One]	28.4 ± 2.37	57.7 ± 4.7		57 ± 6.27	43.8 ± 3.68		
C/C(=C\c1ccc(N(C)C)cc1)C(=O)c1ccc(Cl)c(Cl)c1 [Compound 3n, (E)-1-(3,4-Dichlorophenyl)-3-(4-(dimethylamino)phenyl)-2-methylprop-2-en-1-one]	> 100	> 100	184 to 184.8	23.4 ± 3.42	> 100		
COc1cccc2c1C(=O)c1c(O)c3c(c(O)c1C2=O)C[C@@](O)(C(=O)CO)C[C@@H]3O[C@H]1C[C@H](N)[C@H](O)[C@H](C)O1 [Doxorubicin]					10.4 ± 1.09	3.68	38.3 ± 4.57
CCN(CC)c1ccc(/C=C(\C)C(=O)c2ccc(Cl)c(Cl)c2)cc1 [Compound 3o, (E)-1-(3,4-Dichlorophenyl)-3-(4-(diethylamino)phenyl)-2-methylprop-2-en-1-one]	> 100	> 100	186.7 to 190.8	35 ± 4.93	> 100		
COc1cccc(/C=C(\C)C(=O)c2ccc(Cl)c(Cl)c2)c1OC [Compound 3i, (E)-1-(3,4-Dichlorophenyl)-3-(2,3-dimethoxyphenyl)-2-methylprop-2-en-1-one]	> 100	> 100	99.8 to 100.7	30.7 ± 8.84	> 100		
COc1cc(OC)c(OC)cc1/C=C(\C)C(=O)c1ccc(Cl)c(Cl)c1 [Compound 3a, (E)-1-(3,4-Dichlorophenyl)-2-methyl-3-(2,4,5-trimethoxyphenyl)prop-2-en-1-one]	23.5 ± 4.55	> 100	129.6 to 130.5	69.9 ± 7.18	> 100		
COc1ccc(/C=C(\C)C(=O)c2ccc(Cl)c(Cl)c2)cc1 [Compound 3m, (E)-1-(3,4-Dichlorophenyl)-3-(4-methoxyphenyl)-2-methylprop-2-en-1-one]	67.7 ± 5.6	> 100	70 to 71.1	35.1 ± 4.75	29.8 ± 0.98		
COc1cc(/C=C(\C)C(=O)c2ccc(Cl)c(Cl)c2)cc(OC)c1 [Compound 3h, (E)-1-(3,4-Dichlorophenyl)-3-(3,5-dimethoxyphenyl)-2-methylprop-2-en-1-one]	> 100	> 100	157 to 158.1	54.4 ± 11.5	> 100		
CCN(CC)c1ccc(/C=C(\C)C(=O)c2ccc(Cl)cc2Cl)cc1 [Compound 3p, (E)-1-(2,4-Dichlorophenyl)-3-(4-(diethylamino)phenyl)-2-methylprop-2-en-1-one]	> 100	> 100		41.4 ± 5.42	> 100		
COc1ccc(/C=C(\C)C(=O)c2ccc(Cl)c(Cl)c2)c(OC)c1OC [Compound 3c, (E)-1-(3,4-Dichlorophenyl)-2-methyl-3-(2,3,4-trimethoxyphenyl)prop-2-en-1-one]	41.8 ± 5.1	> 100	114.1 to 115.5	33.9 ± 4.99	> 100		
COc1cc(OC)c(/C=C(\C)C(=O)c2ccc(Cl)cc2Cl)c(OC)c1 [Compound 3e, (E)-1-(2,4-dichlorophenyl)-2-methyl-3-(2,4,6-trimethoxyphenyl)prop-2-en-1-one]	> 100	> 100	104.6 to 105.7	> 100	> 100		
COc1cccc(OC)c1/C=C(\C)C(=O)c1ccc(Cl)c(Cl)c1 [Compound 3g, (E)-1-(3,4-dichlorophenyl)-3-(2,6-dimethoxyphenyl)-2-methylprop-2-en-1-one]	> 100	> 100	134.4 to 135.6	44.8 ± 2.85	56.1 ± 4.58		
COc1ccc(OC)c(/C=C(\C)C(=O)c2ccc(Cl)c(Cl)c2)c1 [Compound 3j, (E)-1-(3,4-Dichlorophenyl)-3-(2,5-dimethoxyphenyl)-2-methylprop-2-en-1-one]	> 100	> 100		28.5 ± 3.78	> 100		
